Test results from patent publication US8124609B2, “Acyclic nucleoside derivatives” (Medivir AB, priority 1996, dated 2012).

Assays:
Format in all cases: in vivo
[1] = test system: Herpes simplex virus-1 (HSV-1); assay: Antiviral activity in HSV-1-infected mouse (survival); settings: 21 and 83 mg/kg p.o. three times daily for 5 days, relative to equivalent dose of acyclovir
Description: Herpes simplex virus-1 (HSV-1)-infected mouse serves as an animal model to determine the efficacy of antiviral agents in vivo. Mice inoculated intraperitoneally with HSV-1 at 1000 times the LD50 were administered either with a formulation comprising the currently marketed anti-herpes agent acyclovir (21 and 83 mg/kg in a 2% propylene glycol in sterile water vehicle, three times daily, p.o.) or the compound of Example 29 (21 and 83 mg/kg in a 2% propylene glycol in sterile water vehicle, three times daily, p.o.) for 5 consecutive days beginning 5 hours after inoculation. The animals were assessed daily for deaths. […] In the legend, the compound of the invention is denoted Ex. 29 and acyclovir is denoted ACV.

[2] = Bioavailability testing in rats (24 h urinary H2G recovery); settings: rat; for Bioavailability (Table 2): 0.1 mmol/kg per oral, 24 hour urinary H2G recovery as percentage of recovery after 0.1 mmol/kg i.v. H2G
Description: The bioavailability of compounds of the invention were compared to the parent compound H2G and other H2G derivatives in a rat model. Compounds of the invention and comparative compounds were administered, per oral (by catheter into the stomach), to multiples of three individually weighed animals to give 0.1 mmol/kg of the dissolved prod rug in an aqueous (Example 4, 5, Comparative example 1-3, 5, 8), peanut oil (Comparative examples 4, 9, 10) or propylene glycol (Example 1-3, 6-12, 17, Comparative example 6, 7) vehicle dependent on the solubility of the test compound ingredient. The animals were fasted from 5 hours before to approximately 17 hours after administration and were maintained in metabolic cages. Urine was collected for the 24 hours following administration and frozen until analysis. H2G was analysed in the urine using the HPLC/UV assay of Stahle & Öberg, Antimicrob Agents Chemother. 36 No 2, 339-342 (1992), modified as follows: samples upon thawing are diluted 1:100 in aq dist H2O and filtered through an amicon filter with centrifugation at 3000 rpm for 10 minutes. Duplicate 30 μl samples are chromatographed on an HPLC column; Zorbax SB-C18; 75×4.6 mm; 3.5 micron; Mobile phase 0.05M NH4PO4, 3-4% methanol, pH 3.3-3.5; 0.5 ml/min; 254 nm, retention time for H2G at MeOH 4% and pH 3.33, ˜12.5 min. Bioavailability is calculated as the measured H2G recovery from each animal averaged over at least three animals and expressed as a percentage of the averaged 24 hour urinary H2G recovery from a group of 4 individually weighed rats respectively injected i.vjugularis with 0.1 mmol/kg H2G in a Ringer's buffer vehicle and analysed as above.
Comparative example 1 (H2G) was from the same batch as used for preparation of Examples 1 to 12. The preparation of Comparative example 2 (monoVal-H2G) and 3 (diVal-H2G) are shown in Examples 21 and 23. […] Comparative examples 5 & 8 (Val/Ac H2G) were prepared analogously to Example 4 using acetic anhydride with relevant monovaline H2G. […]

[3] = Plasma concentrations in rats (plasma drug assay, H2G AUC oral vs i.v.); settings: rat, 10 mg/kg oral dose in propylene glycol, plasma H2G AUC vs 10 mg/kg intravenous H2G
Description: A plasma concentration assay was done in male Sprague Dawley derived rats. The animals were fasted overnight prior to dosing but were permitted free access to water. Each of the compounds evaluated was prepared as a solution/suspension in propylene glycol at a concentration corresponding to 10 mg H2G/ml and shaken at room temperature for eight hours. Groups of rats (at least 4 rats in each group) received a 10 mg/kg (1 ml/kg) oral dose of each of the compounds; the dose was administered by gavage. At selected time points after dosing (0.25, 0.5, 1, 1.5, 2, 4, 6, 9, 12, 15, and 24 hours after dosing), heparinized blood samples (0.4 ml/sample) were obtained from a tail vein of each animal. The blood samples were immediately chilled in an ice bath. Within two hours of collection, the plasma was separated from the red cells by centrifugation and frozen till analysis. The components of interest were separated from the plasma proteins using acetonitrile precipitation. Following lyophilisation, and reconstitution, the plasma concentrations were determined by reverse phase HPLC with fluorescence detection. The oral uptake of H2G and other test compounds was determined by comparison of the H2G area under the curve derived from the oral dose compared to that obtained from a 10 mg/kg intravenous dose of H2G, administered to a separate group of rats. The results are depicted in Table 1B above.

Row | SMILES | percentage of mice surviving the HSV-1 infection [1] | Bioavailability (Table 2) [2] [%] | Bioavailability (Table 1A) ([2]; oral, urinary recovery assay of H2G, relative to i.v. H2G) [%] | Bioavailability (Table 1B) [3] [%]
1 | CCCCCCCCCCCCCCCCCC(=O)OC[C@H](CCOC(=O)[C@@H](N)C(C)C)Cn1cnc2c(=O)[nH]c(N)nc21.Cl [Example 29] | significantly greater | – | – | –
2 | Nc1nc2c(ncn2CC(CO)CCO)c(=O)[nH]1 (centres unmarked) [Comparative example 1, 9-[4-hydroxy-(2-hydroxymethyl)butyl]guanine] | – | 8 | 8 | 3.8
3 | CC(=O)CCCC(=O)OC[C@H](CCOC(=O)[C@@H](N)C(C)C)Cn1cnc2c(=O)[nH]c(N)nc21 [Example 10] | – | 52 | – | –
